Test results taken from patent US8975295B2, “Modulation of zinc levels to improve tissue properties” (Precision Dermatology, Inc., priority 2002, dated 2015).
Read-outs that look alike come from different tables or passages of the source.

Columns and labels:
elastase = assay: Elastase activity with divalent cations in PBS, read at 405 nm; type: biochemical; conditions: for Elastase activity: 0.005M to 0.01M cation concentration in PBS; for sensitivity of elastase to the cation (comparison of the ions): read every minute for 15 minutes
Protocol: An assay was run that involved varying concentrations of each divalent cation, ranging from concentrations of 0.005M to 1.0M, in phosphate buffered saline (PBS). The positive control contained no cations, while the negative control contained no elastase. Solutions were read at 405 nm every minute for 15 minutes under controlled conditions. The optical density value of the negative control, which represented background interference, was subtracted from each result. These corrected optical density values from the two trials were averaged.

deep white fat = conditions: 10 μM Zn++, 21 days, lateral abdomen; base only 29375.425; P = 0.0001
Protocol: (§1) All procedures and analyses were performed by blinded observers. […] Images were analyzed using Image Pro Plus software (Media Cybernetics, Silver Spring, Md.) to determine total cross-sectional area of epidermis over standardized lengths. Mean and standard error were assessed using Statview (Abacus Concepts, Berkeley, Calif.), with comparisons made using ANOVA repeated measures and significance determined at 95% with post-hoc testing using Fisher PLSD or Scheffe F-test.

epidermis = test system: epidermis
Protocol: (§2) To prepare these solutions, a 1.0 M stock of zinc acetate [ZnAc*(H2O)2] (Mallinkrodt Lot 8740 KPRK) was prepared in sterile phosphate buffered saline (PBS, pH 7.2, Gibco BRL Lot #1111327) by dissolving 109.75 g in 500 mL. To 0.2 ml of Cetaphil® moisturizer base was added 20 μl of solution a, b, c, or d depending upon group (corresponding to Groups “A,” “B,” “C,” or “D”). For group A, added 20 μl PBS alone to 180 μl Cetaphil×84 tubes. For group B, added 20 μl 1.0M Zn to 180 μl Cetaphil×84 tubes. For group C, added 200 μl of 1.0M Zn to 19.8 ml PBS, vortexed, labeled as 0.01M Zn, and added 20 μl of […] to 180 μl Cetaphil×84 tubes. For group D, added 200 μl 0.01M Zn to 19.8 ml PBS, vortexed, labeled as 0.1 mM Zn, and added 20 μl […] to 180 μl Cetaphil×84 tubes. After addition of samples to moisturizer base, the samples were mixed to homogeneity and stored at 4° C. overnight. At N=4 per treatment group, C57 Black Six mice at 8 weeks of age were anesthetized with 3% isoflurane by inhalation, and were shaved at mid-scapular dorsal region. Moisturizer was applied daily at 0.2 cc per day for each group for a 21 day period. After 21 days application, the treated skin segment was harvested en bloc and subdivided into three equal portions: a cranial portion, a left lateral portion, and a right lateral portion. The cranial portion and the left lateral portion were fixed in 10% neutral buffered formalin for 12-16 hours, then rinsed in 70% ethanol and embedded in paraffin. The right lateral portion was snap frozen in OCT medium at the time of harvest and stored at −35° C. until use.
as §1, with “Paraffin-embedded specimens from animals treated in example 1 above were sectioned at 4-6 microns, deparaffinized, and stained with a combination of Verhoeff elastica stain and the Masson trichrome stain for morphological assessment of epidermal thickness. All” for “All”
Paraffin-embedded specimens from animals were treated in Example 1 except that the doses of 10.0 μM Zn^++, 1.0 μM Zn^++, 0.1 μM Zn^++, and the control were applied for 42 days. Specimens were fixed and embedded as above, sectioned at 4-6 microns, deparaffinized, and stained with a combination of Verhoeff elastica stain and the Masson trichrome stain for morphological assessment of epidermal thickness. All procedures and analyses were performed by blinded observers. […] Images were analyzed using Image Pro Plus software (Media Cybernetics, Silver Spring, Md.) to determine total cross-sectional area of epidermis over standardized lengths. Mean and standard error were assessed using Statview (Abacus Concepts, Berkeley, Calif.), with comparisons made using ANOVA repeated measures and significance determined at 95% with post-hoc testing using Fisher PLSD or Scheffe F-test.

hypodermal brown fat = conditions: 21 days, base only 456566.375
Protocol: as §2, §1

murine skin = conditions: for local irritation of skin: 21 days topical
Protocol: as §2
All procedures and analyses were performed by blinded observers.

## [Ca+2] [Ca^2+]
elastase
  Elastase activity: increased
  sensitivity of elastase to the cation (comparison of the ions): most sensitive

## [Mg+2] [Mg^2+]
elastase
  Elastase activity: increased
  sensitivity of elastase to the cation (comparison of the ions): least sensitive

## CC(=O)[O-].CC(=O)[O-].[Zn+2] [Zn^++, zinc acetate]
Deep white fat
  Cross-sectional deep adipose area across standardized epidermal lengths, Mean: 73011.321 pixels
epidermis; 0.1 μM Zn++ (Z low), 42 days, base only 6728.286
  Epidermal area across standardized epidermal lengths, Mean: 6710.000 pixels
epidermis; 1.0 μM Zn++ (Z med), 42 days, base only 6728.286
  Epidermal area across standardized epidermal lengths, Mean: 7724.190 pixels
epidermis; 10 μM Zn++ (Z high), 42 days, base only 6728.286, P = 0.0014
  Epidermal area across standardized epidermal lengths, Mean: 7203.875 pixels
epidermis; 10.0 μM Zn++ (Z low), 21 days, base only 18221.646
  Epidermal area across standardized epidermal lengths, Mean: 16786.125 pixels
epidermis; 1.0 mM Zn++ (Z med), 21 days, base only 18221.646
  Epidermal area across standardized epidermal lengths, Mean: 20799.188 pixels
epidermis; 100 mM Zn++ (Z high), 21 days, base only 18221.646
  Epidermal area across standardized epidermal lengths, Mean: 27365.292 pixels
Hypodermal brown fat; 10 μM Zn++ (Z low), P=0.0001
  Cross-sectional hypodermal adipose area across standardized epidermal lengths, Mean: 436809.417 pixels
Hypodermal brown fat; 1.0 mM Zn++ (Z med)
  Cross-sectional hypodermal adipose area across standardized epidermal lengths, Mean: 377185.833 pixels
Hypodermal brown fat; 100 mM Zn++ (Z high)
  Cross-sectional hypodermal adipose area across standardized epidermal lengths, Mean: 132251.333 pixels
Murine skin; 21 days daily topical, 10 μM, 1.0 mM, 100 mM Zn++ in moisturizer base vs base only
  elastin content of skin (black elastic fibers, Verhoeff Elastica stain): dose-dependant increases in the elastin content of skin
Murine skin; high dose, 100 mM Zn++ (Z high)
  local irritation of skin: epidermal sloughing and irritation occurs
Murine skin; lower doses (Z low, Z med)
  local irritation of skin: without local signs of irritation
elastase
  Elastase activity: increased
  sensitivity of elastase to the cation (comparison of the ions): most constantly inhibited
elastase; increasing concentration
  elastase function as the concentration of zinc-containing components increases: stabilizing, then destabilizing, then restabilizing elastase function
